These are literature values, as cited in patent US11337932B2, “Transdermal therapeutic system containing asenapine and polysiloxane or polyisobutylene” (LTS LOHMANN Therapie-Systeme AG, priority 2016, dated 2022).

The conditions of data set [1]: if ingested.
Data set [2] concerns the target serotonin 5-HT2A receptors (Homo sapiens, UniProt P28223). Particulars: background statement; antagonist at dopamine D2 and serotonin 5-HT2A receptors.

Sequence of serotonin 5-HT2A receptors (P28223 whole entry): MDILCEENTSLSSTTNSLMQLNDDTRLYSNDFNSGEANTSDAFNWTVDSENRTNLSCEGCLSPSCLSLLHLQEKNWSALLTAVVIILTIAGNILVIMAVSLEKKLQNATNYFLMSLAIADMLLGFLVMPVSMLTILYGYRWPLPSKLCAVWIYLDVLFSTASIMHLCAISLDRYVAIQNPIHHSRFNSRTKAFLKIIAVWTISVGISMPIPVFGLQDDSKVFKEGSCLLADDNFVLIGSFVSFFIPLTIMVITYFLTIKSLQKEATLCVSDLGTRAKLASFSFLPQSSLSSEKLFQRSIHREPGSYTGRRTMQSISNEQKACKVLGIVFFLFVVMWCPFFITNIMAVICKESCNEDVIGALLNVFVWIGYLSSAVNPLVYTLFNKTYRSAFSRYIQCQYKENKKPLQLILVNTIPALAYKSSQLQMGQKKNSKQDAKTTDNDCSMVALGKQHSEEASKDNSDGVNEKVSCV

What is called bioavailability is the share of a dose that reaches the circulation, judged against a reference dose that is usually intravenous. In the case of `CN1C[C@H]2c3ccccc3Oc3ccc(Cl)cc3[C@@H]2C1` (relative stereo) [asenapine, (3aRS,12bRS)-rel-5-chloro-2,3,3a,12b-tetrahydro-2-methyl-1H-dibenz[2,3:6,7]oxepino[4,5-c]pyrrole], in data set [1], the bioavailability is less than 2%. For the same molecule, in data set [2], the affinity entry is reported as “high affinity”.
